Assay results as given in patent US20210115040A1, “OGA INHIBITOR COMPOUNDS” (Janssen Pharmaceutica NV, priority 2018, published 2021).
Blank lines part the entries; values can stand above or below the compound they belong to.

Tests used:
[1] = target: T1, recombinant human Meningioma Expressed Antigen 5 (MGEA5), also referred to as O-GlcNAcase (OGA) (Homo sapiens, UniProt O60502); experiment: OGA biochemical assay (inhibition of FM-GlcNAc hydrolysis, fluorescence); settings: FM-GlcNAc substrate; for IC50: 6 h at room temperature, read-out: Enzymatic hOGA, pIC50 (converted); for Enzymatic Emax (%) / Emax: maximal effect; for Emax: read-out: Enzymatic Emax (%)
T1 construct: Full length OGA enzyme was purchased at OriGene (cat #TP322411); purchased OriGene TP322411
T1 sequence (O60502 1-916): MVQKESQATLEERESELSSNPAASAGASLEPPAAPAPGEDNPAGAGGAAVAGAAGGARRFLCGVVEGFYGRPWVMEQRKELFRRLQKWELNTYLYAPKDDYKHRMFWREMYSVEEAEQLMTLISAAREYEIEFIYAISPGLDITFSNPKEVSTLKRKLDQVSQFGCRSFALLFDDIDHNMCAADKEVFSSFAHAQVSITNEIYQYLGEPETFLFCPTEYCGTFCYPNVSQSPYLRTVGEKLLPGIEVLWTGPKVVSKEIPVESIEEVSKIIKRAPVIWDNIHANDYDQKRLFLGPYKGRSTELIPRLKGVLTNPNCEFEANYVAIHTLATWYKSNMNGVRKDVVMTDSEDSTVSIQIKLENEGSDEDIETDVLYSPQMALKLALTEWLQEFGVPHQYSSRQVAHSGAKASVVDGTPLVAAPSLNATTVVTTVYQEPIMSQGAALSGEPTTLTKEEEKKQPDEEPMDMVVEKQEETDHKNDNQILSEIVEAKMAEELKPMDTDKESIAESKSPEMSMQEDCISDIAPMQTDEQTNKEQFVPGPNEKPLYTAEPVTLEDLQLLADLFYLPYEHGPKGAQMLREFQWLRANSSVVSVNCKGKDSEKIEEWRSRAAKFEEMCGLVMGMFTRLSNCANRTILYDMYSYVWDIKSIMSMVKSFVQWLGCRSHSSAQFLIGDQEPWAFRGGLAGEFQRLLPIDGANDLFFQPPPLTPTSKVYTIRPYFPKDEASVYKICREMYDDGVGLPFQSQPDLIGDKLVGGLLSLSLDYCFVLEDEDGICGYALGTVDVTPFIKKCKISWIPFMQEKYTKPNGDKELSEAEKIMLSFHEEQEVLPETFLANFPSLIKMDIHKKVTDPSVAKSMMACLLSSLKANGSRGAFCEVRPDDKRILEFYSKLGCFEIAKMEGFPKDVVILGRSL
From the text: The assay is based on the inhibition of the hydrolysis of fluorescein mono-β-D-N-Acetyl-Glucosamine (FM-GlcNAc) (Mariappa et al. 2015, Biochem J 470:255) by the recombinant human Meningioma Expressed Antigen 5 (MGEA5), also referred to as O-GlcNAcase (OGA). The hydrolysis FM-GlcNAc (Marker Gene technologies, cat #M1485) results in the formation of β-D-N-glucosamineacetate and fluorescein. The fluorescence of the latter can be measured at excitation wavelength 485 nm and emission wavelength 538 nm. An increase in enzyme activity results in an increase in fluorescence signal. Full length OGA enzyme was purchased at OriGene (cat #TP322411). The enzyme was stored in 25 mM Tris.HCl, pH 7.3, 100 mM glycine, 10% glycerol at −20° C. Thiamet G and GlcNAcStatin were tested as reference compounds (Yuzwa et al. 2008 Nature Chemical Biology 4:483; Yuzwa et al. 2012 Nature Chemical Biology 8:393). The assay was performed in 200 mM Citrate/phosphate buffer supplemented with 0.005% Tween-20. 35.6 g Na2HPO4 2H2O (Sigma, #C0759) were dissolved in 1 L water to obtain a 200 mM solution. 19.2 g citric acid (Merck, #1.06580) was dissolved in 1 L water to obtain a 100 mM solution. pH of the sodiumphosphate solution was adjusted with the citric acid solution to 7.2. The buffer to stop the reaction consists of a 500 mM Carbonate buffer, pH 11.0. 734 mg FM-GlcNAc were dissolved in 5.48 mL DMSO to obtain a 250 mM solution and was stored at −20° C. OGA was used at a 2 nM concentration and FM-GlcNAc at a 100 uM final concentration. Dilutions were prepared in assay buffer.
50 nl of a compound dissolved in DMSO was dispensed on Black Proxiplate™ 384 Plus Assay plates (Perkin Elmer, #6008269) and 3 μl fl-OGA enzyme mix added subsequently. Plates were pre-incubated for 60 min at room temperature and then 2 μl FM-GlcNAc substrate mix added. […] Plates were briefly centrifuged for 1 min at 1000 rpm and incubate at room temperature for 6 h. To stop the reaction 5 μl STOP buffer were added and plates centrifuge again 1 min at 1000 rpm. Fluorescence was quantified in the Thermo Scientific Fluoroskan Ascent or the PerkinElmer EnVision with excitation wavelength 485 nm and emission wavelength 538 nm.
For analysis a best-fit curve is fitted by a minimum sum of squares method. From this an IC50 value and Hill coefficient was obtained. High control (no inhibitor) and low control (saturating concentrations of standard inhibitor) were used to define the minimum and maximum values.

OGA = target: T2, OGA (Homo sapiens, UniProt O60502); experiment: OGA cellular assay (ICC detection of O-GlcNAcylated proteins in HEK293 cells inducible for P301L mutant human Tau); format: cell-based; settings: for EC50: 6 hours incubation, read-out: Cellular hOGA, pEC50 (converted); for Emax: HEK293, HEK293 cells inducible for P301L mutant human Tau
T2 construct: HEK293 cells inducible for P301L mutant human Tau (isoform 2N4R) were established at Janssen; endogenous in cells; host or cells: HEK293 cells inducible for P301L mutant human Tau (2N4R)
T2 sequence (O60502 1-916): T1 sequence (O60502 1-916)
Description: HEK293 cells inducible for P301L mutant human Tau (isoform 2N4R) were established at Janssen. Thiamet-G was used for both plate validation (high control) and as reference compound (reference EC50 assay validation). OGA inhibition is evaluated through the immunocytochemical (ICC) detection of O-GlcNAcylated proteins by the use of a monoclonal antibody (CTD110.6; Cell Signaling, #9875) detecting 0-GlcNAcylated residues as previously described (Dorfmueller et al. 2010 Chemistry & biology, 17:1250). Inhibition of OGA will result in an increase of O-GlcNAcylated protein levels resulting in an increased signal in the experiment. Cell nuclei are stained with Hoechst to give a cell culture quality control and a rough estimate of immediate compounds toxicity, if any. ICC pictures are imaged with a Perkin Elmer Opera Phenix plate microscope and quantified with the provided software Perkin Elmer Harmony 4.1.
Cells were propagated in DMEM high Glucose (Sigma, #D5796) following standard procedures. 2 days before the cell assay cells are split, counted and seeded in Poly-D-Lysine (PDL) coated 96-wells (Greiner, #655946) plate at a cell density of 12,000 cells per cm^2 (4,000 cells per well) in 100 μl of Assay Medium (Low Glucose medium is used to reduce basal levels of GlcNAcylation) (Park et al. 2014 The Journal of biological chemistry 289:13519). At the day of compound test medium from assay plates was removed and replenished with 90 μl of fresh Assay Medium. 10 μl of compounds at a 10fold final concentration were added to the wells. Plates were centrifuged shortly before incubation in the cell incubator for 6 hours. DMSO concentration was set to 0.2%. Medium is discarded by applying vacuum. For staining of cells medium was removed and cells washed once with 100 μl D-PBS (Sigma, #D8537). From next step onwards unless other stated assay volume was always 50 μl and incubation was performed without agitation and at room temperature. Cells were fixed in 50 μl of a 4% paraformaldehyde (PFA, Alpha aesar, #043368) PBS solution for 15 minutes at room temperature. […] Before analysis samples were washed 2 times manually for 5 minutes in ICC base buffer.
Imaging is performed using Perkin Elmer Phenix Opera using a water 20× objective and recording 9 fields per well. Intensity readout at 488 nm is used as a measure of O-GlcNAcylation level of total proteins in wells. To assess potential toxicity of compounds nuclei were counted using the Hoechst staining. IC50-values are calculated using parametric non-linear regression model fitting. As a maximum inhibition Thiamet G at a 200 uM concentration is present on each plate. In addition, a concentration response of Thiamet G is calculated on each plate.

[2] = HEK293 cells inducible for P301L mutant human Tau

SMILES: Cc1cc(CO[C@H]2CCCN(C(C)c3cc4nc(C)sc4cc3F)C2)cc(C)n1 (single isomer, unassigned) [Compound 101]
IC50 [1]: 3.98 nM | Enzymatic Emax (%) [1]: 98% | EC50 (OGA; [2]): 50.1 nM | Cellular Emax (%) (OGA; HEK293 cells inducible for P301L mutant human Tau, maximum = Thiamet G 200 uM): 73%

SMILES: Cc1cc(C[C@H]2CCN(C(C)c3cnc4[nH]c(C)nc4c3)C2)cc(C)n1 (stereo partly drawn) [Compound 102]
IC50 [1]: 398 nM | Emax [1]: 96% | Emax (OGA; maximum = Thiamet G 200 uM): 32% | EC50 (OGA; [2]): > 1000 nM

SMILES: Cc1cc([C@H]2CCCN(C(C)c3nc4nc(C)sc4cc3F)C2)cc(C)n1 (single isomer, unassigned) [Compound 85]
IC50 [1]: 3.98 nM | Emax [1]: 100% | Emax (OGA; maximum = Thiamet G 200 uM): 75% | EC50 (OGA; [2]): 10 nM

SMILES: Cc1cc(C[C@H]2CCCN(C(C)c3ccc4nc(C)[nH]c4n3)C2)cc(C)n1 (mixture of isomers) [Compound 8]
IC50 [1]: 100 nM | Emax [1]: 99% | Emax (OGA; maximum = Thiamet G 200 uM): 23% | EC50 (OGA; [2]): > 1000 nM

SMILES: COc1cc(C2CCCN(C(C)c3ccc4oc(C)nc4n3)C2)cc(C(F)(F)F)n1 (racemic) [Compound 20]
IC50 [1]: 20 nM | Emax [1]: 101% | Emax (OGA; maximum = Thiamet G 200 uM): 60% | EC50 (OGA; [2]): 631 nM

SMILES: Cc1cc(OC[C@H]2CCN(C(C)c3ccc4sc(C)nc4n3)C2)cc(C)n1 (mixture of isomers) [Compound 48]
IC50 [1]: 794 nM | Emax [1]: 93% | Emax (OGA; maximum = Thiamet G 200 uM): 16% | EC50 (OGA; [2]): > 1000 nM

SMILES: Cc1cc(C[C@@H]2CCN(C(C)c3ccc4oc(C(C)C)nc4n3)C2)cc(C)n1 (mixture of isomers) [Compound 31]
IC50 [1]: > 10000 nM | Emax [1]: 30% | Emax (OGA; maximum = Thiamet G 200 uM): -7% | EC50 (OGA; [2]): > 1000 nM

SMILES: Cc1cc([C@H]2CCCN([C@H](C)c3ccc4sc(C)nc4n3)C2)cc(C)n1 (racemic) [Compound 75]
IC50 [1]: 2000 nM | Emax [1]: 86% | Emax (OGA; maximum = Thiamet G 200 uM): -1% | EC50 (OGA; [2]): > 1000 nM

SMILES: Cc1cc(C[C@H]2CCCN(Cc3ccc4sc(C)nc4n3)C2)cc(C)n1 (mixture of isomers) [Compound 52]
IC50 [1]: 63.1 nM | Emax [1]: 103% | Emax (OGA; maximum = Thiamet G 200 uM): 70% | EC50 (OGA; [2]): 501 nM

SMILES: Cc1cc(C[C@H]2CCCN(C(C)c3cnc4c(c3)nc(C)n4C)C2)cc(C)n1 (mixture of isomers) [Compound 11]
IC50 [1]: 31.6 nM | Emax [1]: 100% | Emax (OGA; maximum = Thiamet G 200 uM): 64% | EC50 (OGA; [2]): 631 nM

SMILES: Cc1cc([C@H]2CCCN([C@@H](C)c3ccc4sc(C)nc4n3)C2)nc(C)n1 (racemic) [Compound 71]
IC50 [1]: 7940 nM | Emax [1]: 51% | Emax (OGA; maximum = Thiamet G 200 uM): -5% | EC50 (OGA; [2]): > 1000 nM

SMILES: COc1cc(OC[C@H]2CCCN(C(C)c3ccc4sc(C)nc4n3)C2)cc(C)n1 (mixture of isomers) [Compound 54]
IC50 [1]: 10 nM | Emax [1]: 100% | Emax (OGA; maximum = Thiamet G 200 uM): 67% | EC50 (OGA; [2]): 158 nM

SMILES: Cc1cc([C@H]2CCCN([C@@H](C)c3ccc4sc(C)nc4n3)C2)cc(C)n1 (racemic) [Compound 76]
IC50 [1]: 5.01 nM | Emax [1]: 98% | Emax (OGA; maximum = Thiamet G 200 uM): 67% | EC50 (OGA; [2]): 31.6 nM

Further lines, results first:

IC50 [1]: 7.94 nM | Emax [1]: 101% | Emax (OGA; maximum = Thiamet G 200 uM): 79% | EC50 (OGA; [2]): 25.1 nM
SMILES: COc1cc(C[C@H]2CCCN([C@H](C)c3ccc4oc(C)nc4n3)C2)cc(C)n1 (relative stereo) [Compound 23a]

IC50 [1]: 7.94 nM | Emax [1]: 99% | Emax (OGA; maximum = Thiamet G 200 uM): 81% | EC50 (OGA; [2]): 39.8 nM
SMILES: Cc1cc(C[C@H]2CCCN([C@H](C)c3ccc4oc(C)nc4n3)C2)cc(C(F)(F)F)n1 [Compound 24a]

IC50 [1]: 6.31 nM | Emax [1]: 99% | Emax (OGA; maximum = Thiamet G 200 uM): 70% | EC50 (OGA; [2]): 31.6 nM
SMILES: Cc1cc(OC[C@H]2CCCN([C@H](C)c3ccc4sc(C)nc4n3)C2)nc(C)n1 [Compound 49b]

IC50 [1]: 3.98 nM | Emax [1]: 101% | Emax (OGA; maximum = Thiamet G 200 uM): 85% | EC50 (OGA; [2]): 50.1 nM
SMILES: Cc1cc(C[C@H]2CCCN([C@H](C)c3ccc4oc(C)nc4n3)C2)cc(OC(F)(F)F)n1 [Compound 25a]

IC50 [1]: 2.51 nM | Enzymatic Emax (%) [1]: 101% | Emax (OGA; maximum = Thiamet G 200 uM): 79% | EC50 (OGA; [2]): 10 nM
SMILES: Cc1cc(C[C@H]2CCCN(C(C)c3ccc4sc(C)nc4n3)C2)cc(C)n1 (single isomer, unassigned) [Compound 42b]
